What was measured:
[1] = system: SW620 cells (KRAS G12V); assay: Cell-based pERK HTRF assay in SW620 cell (Biological Example 4); conditions: Homo sapiens, SW-620, SW620 (KRAS G12V) cells, pERK HTRF
Method in brief: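 Read-out: HTRF pERK signal (excitation 320 nm, emission 615 nm) from lysates of SW620 cells after 4 h compound exposure. Dose range was 9 points, half-log steps from 1 μM, in 0.25% DMSO; antibody incubation ran 4–24 h at room temperature.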

[2] = biological target: T1, Avi-KRAS G12V (1-169) GppNHp/RAF1 RBD-3xFLAG (52-151) (Homo sapiens, UniProt P01116, G12V); assay: Raf1-KRAS G12V-GppNHP disruption HTRF assay (Biological Example 1); format: binding
T1 construct: Avi-KRAS G12V (1-169)
Method in brief: (§1)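 Using HTRF, the loss of KRAS–effector RAF1 complex was quantified in 50 mM Tris pH 7.5 buffer with 100 mM NaCl and 0.1% BSA. The protein step and reagent step ran 1 h each at room temperature. Activity normalized with DMSO taken as 100%.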

[3] = system: GP2d cells (KRAS G12D); assay: Cell-based pERK HTRF assay in GP2d cell (Biological Example 2); conditions: GP2d, GP2d (KRAS G12D) cells, pERK HTRF
Method in brief: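 60 min compound, 0.25% DMSO, 9-pt half-log curve from 1 μM or 100 nM; DMEM/10% FBS.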

[4] = biological target: T2, Avi-KRAS WT (1-169) GppNHp/RAF1 RBD-3xFLAG (52-151) (Homo sapiens, UniProt P01116); assay: Raf1-KRAS WT-GppNHP disruption HTRF assay (Biological Example 1); format: binding
T2 construct: Avi-KRAS WT (1-169)
Method in brief: as §1

[5] = biological target: T3, Avi-KRAS G12D (1-169) GppNHp/RAF1 RBD-3xFLAG (52-151) (Homo sapiens, UniProt P01116, G12D); assay: Raf1-KRAS G12D-GppNHP disruption HTRF assay (Biological Example 1); format: binding
T3 construct: Avi-KRAS G12D (1-169)
Method in brief: as §1

[6] = biological target: T4, Avi-KRAS G12R (1-169) GppNHp/RAF1 RBD-3xFLAG (52-151) (Homo sapiens, UniProt P01116, G12R); assay: Raf1-KRAS G12R-GppNHP disruption HTRF assay (Biological Example 1); format: binding
T4 construct: Avi-KRAS G12R (1-169)
Method in brief: as §1

[7] = KRAS G12V, GppNHp-loaded, class symbols
[8] = KRAS WT, GppNHp-loaded, class symbols
[9] = KRAS G12D, GppNHp-loaded, class symbols
[10] = KRAS G12R, GppNHp-loaded, class symbols
[11] = KRAS G12V, GppNHp-loaded, Table 11
[12] = KRAS WT, GppNHp-loaded, Table 11
[13] = KRAS G12D, GppNHp-loaded, Table 11
[14] = KRAS G12R, GppNHp-loaded, Table 11

T3 sequence (P01116 1-169 isoform P01116-2 G12D): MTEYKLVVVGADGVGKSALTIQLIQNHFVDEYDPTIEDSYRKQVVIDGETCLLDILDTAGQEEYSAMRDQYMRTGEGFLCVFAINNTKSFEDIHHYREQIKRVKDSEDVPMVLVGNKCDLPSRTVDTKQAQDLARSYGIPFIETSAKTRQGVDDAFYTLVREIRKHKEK
T2 sequence (P01116 1-169 isoform P01116-2): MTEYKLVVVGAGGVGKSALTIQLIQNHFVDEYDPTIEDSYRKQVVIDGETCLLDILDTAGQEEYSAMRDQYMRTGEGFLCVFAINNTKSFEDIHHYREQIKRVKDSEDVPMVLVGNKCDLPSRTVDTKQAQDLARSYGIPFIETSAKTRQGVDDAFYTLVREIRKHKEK
T1 sequence (P01116 1-169 isoform P01116-2 G12V): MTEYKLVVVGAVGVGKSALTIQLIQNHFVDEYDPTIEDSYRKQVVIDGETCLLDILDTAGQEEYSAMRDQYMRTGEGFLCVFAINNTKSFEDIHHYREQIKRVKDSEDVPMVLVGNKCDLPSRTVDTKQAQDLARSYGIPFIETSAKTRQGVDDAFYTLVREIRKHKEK
T4 sequence (P01116 1-169 isoform P01116-2 G12R): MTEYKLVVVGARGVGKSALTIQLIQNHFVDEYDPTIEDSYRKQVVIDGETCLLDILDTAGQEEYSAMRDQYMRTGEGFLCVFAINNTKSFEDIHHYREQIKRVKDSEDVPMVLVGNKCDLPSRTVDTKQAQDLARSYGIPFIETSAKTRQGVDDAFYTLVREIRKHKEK

Compound	IC50 [1] [nM]	IC50 ([2]; KRAS G12V-GppNHp/RAF1 RBD HTRF) [nM]	IC50 [3] [nM]	IC50 ([4]; KRAS WT-GppNHp/RAF1 RBD HTRF) [nM]	IC50 ([5]; KRAS G12D-GppNHp/RAF1 RBD HTRF) [nM]	IC50 ([6]; KRAS G12R-GppNHp/RAF1 RBD HTRF) [nM]	IC50 ([1]; class symbols) [nM]	IC50 [2, 7] [nM]	IC50 ([3]; class symbols) [nM]	IC50 [4, 8] [nM]	IC50 [5, 9] [nM]	IC50 [6, 10] [nM]	IC50 [2, 11] [nM]	IC50 [4, 12] [nM]	IC50 [5, 13] [nM]	IC50 [6, 14] [nM]
Cn1ncc2c1CN(c1nc(OC[C@@]34CCCN3C[C@H](F)C4)nc3c(F)c(-c4ccc(F)c5sc(N)c(C#N)c45)c(C(F)(F)F)cc13)CC2 [Compound 352]	< 100	> 10000	100 to 1000	> 10000	1000 to 10000	> 10000										
CCN(c1nc(OC[C@@]23CCCN2C[C@H](F)C3)nc2c(F)c(-c3ccc(F)c4sc(N)c(C#N)c34)c(C(F)(F)F)cc12)[C@H]1CCN(C(=O)OC2COC2)[C@@H]1C (atropisomer, axis not shown) [Compound 809]							< 100	< 100	< 100	< 100	< 100	< 100				
CCN(c1nc(OC[C@@]23CCCN2C[C@H](F)C3)nc2c(F)c(-c3ccc(F)c4sc(N)c(C#N)c34)c(C(F)(F)F)cc12)[C@H]1CCN(C(=O)[C@@H]2C[C@H]2C)C1 (atropisomer, axis not shown) [Compound 690]							< 100	< 100	< 100	< 100	< 100	< 100				
N#Cc1c(N)sc2c(F)ccc(-c3c(C(F)(F)F)cc4cnc(OC[C@@]56CCCN5C[C@H](F)C6)nc4c3F)c12 [Compound 213, 2-amino-7-fluoro-4-[8-fluoro-2-[[(2R,8S)-2-fluoro-1,2,3,5,6,7-hexahydropyrrolizin-8-yl]methoxy]-6-(trifluoromethyl)quinazolin-7-yl]benzothiophene-3-carbonitrile]	< 100		< 100										100 to 1000	100 to 1000	100 to 1000	100 to 1000
N#CCC[C@H]1CCN(c2nc(OC[C@@]34CCCN3C[C@H](F)C4)nc3c(F)c(-c4ccc(F)c5sc(N)c(C#N)c45)c(C(F)(F)F)cc23)C1 [Compound 214]	100 to 1000		100 to 1000										1000 to 10000	1000 to 10000	1000 to 10000	1000 to 10000
CCN(c1nc(OC[C@@]23CCCN2C[C@H](F)C3)nc2c(F)c(-c3ccc(F)c4sc(N)c(C#N)c34)c(C(F)(F)F)cc12)[C@H]1CCN(C(=O)C=C(C)C)C1 (atropisomer, axis not shown) [Compound 675]							< 100	< 100	< 100	< 100	< 100	< 100				
CCN(c1nc(OC[C@@]23CCCN2C[C@H](F)C3)nc2c(F)c(-c3ccc(F)c4sc(N)c(C#N)c34)c(C(F)(F)F)cc12)[C@H]1CC(=O)N(CCOC)C1 (atropisomer, axis not shown) [Compound 815]							< 100	< 100	< 100	< 100	< 100	< 100				
CN(C)C(=O)c1nnn2c1CN(c1nc(OC[C@@]34CCCN3C[C@H](F)C4)nc3c(F)c(-c4ccc(F)c5sc(N)c(C#N)c45)c(C(F)(F)F)cc13)CC2 [Compound 466]	< 100	100 to 1000	< 100	100 to 1000	100 to 1000	100 to 1000										
CCN(c1nc(OC[C@@]23CCCN2C[C@H](F)C3)nc2c(F)c(-c3ccc(F)c4sc(N)c(C#N)c34)c(C(F)(F)F)cc12)[C@H]1CCN(C(=O)OC2CCC2)C1 (atropisomer, axis not shown) [Compound 802]							< 100	< 100	< 100	100 to 1000	< 100	< 100				
N#Cc1c(N)sc2c(F)ccc(-c3c(C(F)(F)F)cc4c(N5CCC5)nc(OC[C@@]56CCCN5C[C@H](F)C6)nc4c3F)c12 [Compound 212]	< 100		< 100										100 to 1000	100 to 1000	100 to 1000	100 to 1000
C[C@@H]1COC[C@H](C)N1c1nc(OC[C@@]23CCCN2C[C@H](F)C3)nc2c(F)c(-c3ccc(F)c4sc(N)c(C#N)c34)c(C(F)(F)F)cc12 [Compound 201]	< 100		< 100										100 to 1000	100 to 1000	100 to 1000	100 to 1000
CCN(c1nc(OC[C@@]23CCCN2C[C@H](F)C3)nc2c(F)c(-c3ccc(F)c4sc(N)c(C#N)c34)c(C(F)(F)F)cc12)[C@H]1CCN(C(=O)[C@H]2CCO2)[C@@H]1C (atropisomer, axis not shown) [Compound 805]							< 100	< 100	< 100	< 100	< 100	< 100				

The next lines start with the values.

IC50 [1] [nM]	IC50 ([2]; KRAS G12V-GppNHp/RAF1 RBD HTRF) [nM]	IC50 [3] [nM]	IC50 ([4]; KRAS WT-GppNHp/RAF1 RBD HTRF) [nM]	IC50 ([5]; KRAS G12D-GppNHp/RAF1 RBD HTRF) [nM]	IC50 ([6]; KRAS G12R-GppNHp/RAF1 RBD HTRF) [nM]	IC50 ([1]; class symbols) [nM]	IC50 [2, 7] [nM]	IC50 ([3]; class symbols) [nM]	IC50 [4, 8] [nM]	IC50 [5, 9] [nM]	IC50 [6, 10] [nM]	IC50 [2, 11] [nM]	IC50 [4, 12] [nM]	IC50 [5, 13] [nM]	IC50 [6, 14] [nM]	Compound
< 100	< 100	< 100	100 to 1000	< 100	< 100											CCN(c1nc(OC[C@@]23CCCN2C[C@H](F)C3)nc2c(F)c(-c3ccc(F)c4sc(N)c(C#N)c34)c(C(F)(F)F)cc12)[C@H]1C[C@H](C)N(C(=O)N(C)C)C1 (atropisomer, axis not shown) [Compound 521]
< 100	100 to 1000	< 100	100 to 1000	100 to 1000	100 to 1000											CCN(c1nc(OC[C@@]23CCCN2C[C@H](F)C3)nc2c(F)c(-c3ccc(F)c4sc(N)c(C#N)c34)c(C(F)(F)F)cc12)[C@H]1C[C@H](C)N(C(=O)C(C)C)C1 [Compound 471]
100 to 1000	1000 to 10000	< 100	1000 to 10000	100 to 1000	1000 to 10000											CC(=O)N1C[C@@H](N(C)c2nc(OC[C@@]34CCCN3C[C@H](F)C4)nc3c(F)c(-c4ccc(F)c5sc(N)c(C#N)c45)c(C(F)(F)F)cc23)C[C@H]1CC#N [Compound 503]
						< 100	100 to 1000	< 100	100 to 1000	< 100	100 to 1000					CN(c1nc(OC[C@@]23CCCN2C[C@H](F)C3)nc2c(F)c(-c3ccc(F)c4sc(N)c(C#N)c34)c(C(F)(F)F)cc12)[C@H]1CCN(C(=O)[C@@H]2CC2(F)F)C1 (atropisomer, axis not shown) [Compound 785]
< 100	100 to 1000	< 100	100 to 1000	< 100	100 to 1000											CCN(c1nc(OC[C@@]23CCCN2C[C@H](F)C3)nc2c(F)c(-c3ccc(F)c4sc(N)c(C#N)c34)c(C(F)(F)F)cc12)[C@H]1C[C@@H](C)N(C(C)=O)C1 [Compound 446]
						< 100	100 to 1000	< 100	100 to 1000	100 to 1000	100 to 1000					C=C(F)C(=O)N1CC[C@@H](N(C)c2nc(OC[C@@]34CCCN3C[C@H](F)C4)nc3c(F)c(-c4ccc(F)c5sc(N)c(C#N)c45)c(C(F)(F)F)cc23)[C@H]1C [Compound 669]
< 100	100 to 1000	< 100	100 to 1000	100 to 1000	100 to 1000											CC(=O)N1CCC[C@@H](N(C)c2nc(OC[C@@]34CCCN3C[C@H](F)C4)nc3c(F)c(-c4ccc(F)c5sc(N)c(C#N)c45)c(C(F)(F)F)cc23)C1 [Compound 295]
100 to 1000		< 100										100 to 1000	100 to 1000	100 to 1000	100 to 1000	CC(=O)N1C[C@@H](N(C)c2nc(OC[C@@]34CCCN3C[C@H](F)C4)nc3c(F)c(-c4ccc(F)c5sc(N)c(C#N)c45)c(C(F)(F)F)cc23)C[C@H]1CO [Compound 247]
